Test results from patent US20110262464A1, “Compositions, Kits, and Methods for the Diagnosis, Prognosis, and Monitoring of Cancer Using GOLPH3” (DANAFARBER CANCER INSTITUTE, INC., priority 2008, published 2011).

Assays:
[1] = test system: WM239A melanoma xenograft tumors; assay: In vivo rapamycin treatment of xenograft tumors; design: species or system mouse; details: WM239A-GOLPH3 tumors; rapamycin 6.0 mg/kg i.p. every other day; day 8, post 4 doses
Procedure: (§1) For in vivo rapamycin studies, melanoma 1205LU and WM239A cells verified to stably-express empty vector or GOLPH3 were subcutaneously implanted into female nude animals (Taconic) at 5.0×10^5 cells/site on both flanks. Tumors were allowed to reach approximately 100 mm^3, after which time animals were randomized into separate cohorts for treatment with vehicle [5% (vol/vol) PEG400.5% (vol/vol) Tween-80) or rapamycin (6 mg/kg; LC Laboratories; 50 mg/ml stock prepared in 100% ETOH and diluted fresh in vehicle solvent for treatment) by intraperitoneal injection every other day. Tumor volumes and body weights were measured upon drug administration. Tumor volume was determined by measuring in two directions with vernier calipers and formulated as tumor volume=[…]. Growth curves were plotted as mean change in tumor volume for each group, where mean change indicates change in tumor volume at a given time point minus tumor volume at time of initial dose administration. Endpoint scatter plots were plotted as proportion of final dose endpoint tumor volume over respective tumor baseline starting volume. Percent tumor growth inhibition was determined as (1-(T/N))×100, where T is the mean change in tumor volume of the treated group and N is the mean change in tumor volume of the control group at the assay endpoint. Two-tailed t-test calculations were performed using Prism 4 (Graphpad).

[2] = test system: 1205LU melanoma xenograft tumors; assay: In vivo rapamycin treatment of xenograft tumors; design: species or system mouse; details: 1205LU-GOLPH3 tumors; rapamycin 6.0 mg/kg i.p. every other day; day 8, post 4 doses
Procedure: as §1

In the case of CO[C@H]1C[C@@H]2CC[C@@H](C)[C@@](O)(O2)C(=O)C(=O)N2CCCC[C@H]2C(=O)O[C@H]([C@H](C)C[C@@H]2CC[C@@H](O)[C@H](OC)C2)CC(=O)[C@H](C)/C=C(\C)[C@@H](O)[C@@H](OC)C(=O)[C@H](C)C[C@H](C)/C=C/C=C/C=C/1C [rapamycin], the “percent tumor growth inhibition (% TGI)” value [1] is reported as 80.9% and the “percent tumor growth inhibition (% TGI)” value [2] is reported as 81.9%.
